Test results from patent US4554287A, “Antihypertensive 7-[2-(dialkylamino)ethyl]-4-hydroxy-1,3-benzimidazol-2-ones” (Smithkline Beckman Corporation, priority 1984, dated 1985).
Where two headings read alike, the source gives them in different places.

Columns and labels:
D2 -receptors [1] = target: T1, D2 -receptors (Oryctolagus cuniculus, UniProt G1T1Q0); test: perfused rabbit ear artery test for D2-agonist activity
T1 construct: perfused rabbit ear artery test; from tissue; host or cells: perfused rabbit ear artery (sympathetic nerve terminals)
T1 sequence (G1T1Q0 1-443): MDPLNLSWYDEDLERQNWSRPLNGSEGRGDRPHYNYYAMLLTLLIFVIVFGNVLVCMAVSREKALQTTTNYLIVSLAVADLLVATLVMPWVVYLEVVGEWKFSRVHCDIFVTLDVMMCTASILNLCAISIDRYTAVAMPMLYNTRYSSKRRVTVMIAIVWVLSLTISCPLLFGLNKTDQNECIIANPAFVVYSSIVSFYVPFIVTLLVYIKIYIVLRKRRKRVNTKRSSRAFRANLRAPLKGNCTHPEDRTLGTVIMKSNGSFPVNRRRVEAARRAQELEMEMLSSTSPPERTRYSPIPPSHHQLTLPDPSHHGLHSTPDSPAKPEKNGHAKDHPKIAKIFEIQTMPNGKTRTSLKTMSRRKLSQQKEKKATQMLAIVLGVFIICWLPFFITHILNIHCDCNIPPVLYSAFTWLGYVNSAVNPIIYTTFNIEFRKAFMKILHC
Excerpt: In the perfused rabbit ear artery test for D2 -agonist activity [J. P. Hieble et al., Arch.

D2 -receptors [2] = test: D2-agonist activity (test not specified); conditions: presynaptic dopaminergic receptors on sympathetic nerve terminals
Excerpt: Otherwise speaking, the main locus of action is at the presynaptic dopaminergic receptors or sympathetic nerve terminals which may also be called "D2 -receptors." Activation of the D2 -receptors on the sympathetic nerve terminals inhibits the release of norepinephrine, thereby inhibiting the increases in cardiac rate and the peripheral vasoconstriction resulting from stimulation of the sympathetic nervous system. These are beneficial cardiovascular actions in those conditions involving excessive or inappropriate levels of sympathetic nervous system stimulation.

| SMILES | EC50 (D2 -receptors [1]; perfused rabbit ear artery, D2 -agonist activity, read-out: EC50) [nM] | D2 -agonist activity (in words) (D2 -receptors [2]) | EC50 (D2 -receptors [1]) [nM] |
| --- | --- | --- | --- |
| CCCN(CCC)CCc1ccc(O)c2[nH]c(=O)[nH]c12 [7-[2-(N,N-di-n-propylamino)ethyl]-4-hydroxy-1,3-benzimidazol-2-one] | ~9 | peripheral D2 -agonists |  |
| CCCN(CCC)CCc1ccc(O)c(O)c1 [N,N-di-n-propyldopamine, reference compound] |  |  | 50 to 60 |
